Test results from patent US20090253669A1, “Substituted Sulfonamide Compounds” (GRUENENTHAL GmbH, priority 2008, published 2009).

How the values were obtained:
[1] = target: T1, B1R receptor of the rat (rB1R) (Rattus norvegicus, UniProt P97583); assay: FLIPR Ca2+ assay on rB1R-transfected CHO K1 cells, antagonistic action; format: cell-based; settings: CHO-K1, 10 μM test substance; agonist Des-Arg9-bradykinin 100 nM; % of maximum achievable inhibition; read-out: rB1R [10 μM] % inhibition
T1 construct: host or cells: CHO K1 cells
T1 sequence (P97583 1-337): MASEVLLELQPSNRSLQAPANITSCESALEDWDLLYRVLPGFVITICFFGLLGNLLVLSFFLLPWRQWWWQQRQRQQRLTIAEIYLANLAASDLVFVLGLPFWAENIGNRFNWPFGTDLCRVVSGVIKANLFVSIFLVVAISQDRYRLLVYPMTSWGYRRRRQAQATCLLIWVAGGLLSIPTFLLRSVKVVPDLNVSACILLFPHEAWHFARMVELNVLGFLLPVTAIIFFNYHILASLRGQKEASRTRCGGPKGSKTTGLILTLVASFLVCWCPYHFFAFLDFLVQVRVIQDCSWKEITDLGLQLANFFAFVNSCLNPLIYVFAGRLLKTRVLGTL

[2] = target: T2, human B1R receptor (hB1R) (Homo sapiens, UniProt P46663); assay: FLIPR Ca2+ assay on hB1R-transfected CHO K1 cells, antagonistic action; format: cell-based; settings: CHO-K1, 10 μM test substance; agonist Lys-Des-Arg9-bradykinin 0.5 nM; % of maximum achievable inhibition; read-out: hB1R [10 μM] % inhibition
T2 construct: host or cells: CHO K1 cells
T2 sequence (P46663 1-353): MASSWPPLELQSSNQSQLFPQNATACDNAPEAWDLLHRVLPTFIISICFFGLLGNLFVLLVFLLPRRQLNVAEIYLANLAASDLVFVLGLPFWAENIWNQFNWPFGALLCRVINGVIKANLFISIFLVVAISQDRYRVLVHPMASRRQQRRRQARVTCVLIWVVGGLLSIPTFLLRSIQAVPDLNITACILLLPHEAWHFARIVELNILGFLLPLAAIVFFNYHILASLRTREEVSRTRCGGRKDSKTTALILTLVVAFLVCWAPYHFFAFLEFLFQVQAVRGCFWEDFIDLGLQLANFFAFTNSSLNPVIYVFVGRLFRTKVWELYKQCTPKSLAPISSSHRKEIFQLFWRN

Compound | inhibition at 10 µM [1] [%] | inhibition at 10 µM [2] [%]
COc1cc(C)c(S(=O)(=O)N(C)CCOCC(=O)NC2CCC(CCc3ccccc3)(N(C)C)CC2)c(C)c1C (stereo not shown) [Compound 24, N-(4-(dimethylamino)-4-phenethylcyclohexyl)-2-(2-(4-methoxy-N,2,3,6-tetramethylphenylsulfonamido)ethoxy)acetamide] | 65 | 97
CN(C)C1(c2ccccc2)CCC(NC(=O)CC2c3ccccc3CCN2S(=O)(=O)c2ccc(Cl)c(Cl)c2)CC1 (stereo not shown) [Compound 26, 2-(2-(3,4-dichlorophenylsulfonyl)-1,2,3,4-tetrahydroisoquinolin-1-yl)-N-(4-(dimethylamino)-4-phenylcyclohexyl)acetamide] | 56 | 84
COc1cc(C)c(S(=O)(=O)N2CCC(OCC(=O)NC3CCC(c4ccccc4)(N4CCCCC4)CC3)C2)c(C)c1 (stereo not shown) [Compound 27, 2-(1-(4-methoxy-2,6-dimethylphenylsulfonyl)pyrrolidin-3-yloxy)-N-(4-phenyl-4-(piperidin-1-yl)cyclohexyl)acetamide] | 51 | 69
COc1cc(C)c(S(=O)(=O)N(C)CCOCC(=O)NC2CCC(c3ccccc3)(N3CCCCC3)CC2)c(C)c1C (stereo not shown) [Compound 28, 2-(2-(4-methoxy-N,2,3,6-tetramethylphenylsulfonamido)ethoxy)-N-(4-phenyl-4-(piperidin-1-yl)cyclohexyl)acetamide] | 48 | 60
Cc1cc(C)c(S(=O)(=O)N2CCC(OCC(=O)NC3CCC(CCc4ccccc4)(N(C)C)CC3)C2)c(C)c1 (stereo not shown) [Compound 29, N-(4-(dimethylamino)-4-phenethylcyclohexyl)-2-(1-(mesitylsulfonyl)pyrrolidin-3-yloxy)acetamide] | 46 | 61
Cc1ccccc1CC1(N(C)C)CCC(NC(=O)COCCN(C)S(=O)(=O)c2ccc(Cl)cc2Cl)CC1 (stereo not shown) [Compound 30, 2-(2-(2,4-dichloro-N-methylphenylsulfonamido)ethoxy)-N-(4-(dimethylamino)-4-(2-methylbenzyl)cyclohexyl)acetamide] | 39 | 63
COc1cc(C)c(S(=O)(=O)N2CCCCC2COCC(=O)N(C)CCCC2CCC(c3ccccc3)(N3CCCC3)CC2)c(C)c1 (stereo not shown) [Compound 32, 2-((1-(4-methoxy-2,6-dimethylphenylsulfonyl)piperidin-2-yl)methoxy)-N-methyl-N-(3-(4-phenyl-4-(pyrrolidin-1-yl)cyclohexyl)propyl)acetamide] | 102 | 104
CN(CC1CCC(c2ccccc2)(N2CCCC2)CC1)C(=O)CC1CCCCN1S(=O)(=O)c1cccc(C(F)(F)F)c1 (stereo not shown) [Compound 33, N-methyl-N-((4-phenyl-4-(pyrrolidin-1-yl)cyclohexyl)methyl)-2-(1-(3-(trifluoromethyl)phenylsulfonyl)piperidin-2-yl)acetamide] | 101 | 94
COc1cc(C)c(S(=O)(=O)N(C)CCOCC(=O)N(C)CCC2CCC(c3ccccc3)(N3CCCC3)CC2)c(C)c1 (stereo not shown) [Compound 34, 2-(2-(4-methoxy-N,2,6-trimethylphenylsulfonamido)ethoxy)-N-methyl-N-(2-(4-phenyl-4-(pyrrolidin-1-yl)cyclohexyl)ethyl)acetamide] | 101 | 104
COc1cc(C)c(S(=O)(=O)N(C)CCOCC(=O)N(C)CC2CCC(c3ccccc3)(N3CCCC3)CC2)c(C)c1 (stereo not shown) [Compound 35, 2-(2-(4-methoxy-N,2,6-trimethylphenylsulfonamido)ethoxy)-N-methyl-N-((4-phenyl-4-(pyrrolidin-1-yl)cyclohexyl)methyl)acetamide] | 101 | 102
CN(C)C1(Cc2ccccc2)CCN(C(=O)COCC2CCc3ccccc3N2S(=O)(=O)c2ccc(Cl)c(Cl)c2)CC1 (stereo not shown) [Compound 36, 1-(4-benzyl-4-(dimethylamino)piperidin-1-yl)-2-((1-(3,4-dichlorophenylsulfonyl)-1,2,3,4-tetrahydroquinolin-2-yl)methoxy)ethanone] | 101 | 101
